Measured values reported in US7423149B2, “Substituted n-aryl amidines as selective D1 dopamine receptor antagonists for the treatment of obesity and CNS disorders” (Schering Corporation, priority 2003, dated 2008).

Target: T1, human Dopamine D1 receptor (Homo sapiens, UniProt P21728)
T1 construct: expressed in transfected cells; host or cells: Ltk- cells (mouse fibroblasts), membrane preparation
Test: radioligand binding competition assay, displacement of [3H]SCH 23390 from D1 receptor (Ltk-cells membranes);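 note: under 5 nM class also requires D2 to D1 selectivity above 500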
Conditions: class combines Ki (D1) and, for A and B, D2:D1 selectivity (Ki D2 / Ki D1); read-out: D1 binding and D2:D1 Selectivity
Excerpt: Biological Activity: Compounds from this disclosure have been biologically characterized by their ability to displace a known D1-like selective ligand, [3H]SCH 23390 from the human Dopamine D1 receptor, and a known D2-like selective ligand, [3H] Methylspiperone, from the human Dopamine D2 and D4 receptors.
Affinity values (Ki) of compounds at human dopamine receptors were ascertained using radioligand binding competition assays. Cells expressing D1 (Ltk-cells), D2 (long variant, Ltk-cells), D4 (CHO cells) and D5 (GH4C1 cells) receptors were lysed in hypotonic buffer for membrane preparation. Membranes were incubated with various concentrations of test compound and 1 nM [3H] SCH 23390 (D1 and D5) and 0.2 nM [3H] Methylspiperone for (D2 and D4) assays. Non-specific binding was defined as binding in the presence of 10 micromolar of SCH 23390 for D1 and D5 assays and 10 micromolar butaclamol for D2 and D4 assays. Following incubation to equilibrium (1 hour at room temperature), bound radioligand was separated from free by rapid filtration. Bound radioactivity on the dried filters was quantified by liquid scintillation counting.
Selectivity is determined by dividing Ki for D2, D4 or D5 receptors by Ki for D1 receptor.

T1 sequence (P21728 whole entry): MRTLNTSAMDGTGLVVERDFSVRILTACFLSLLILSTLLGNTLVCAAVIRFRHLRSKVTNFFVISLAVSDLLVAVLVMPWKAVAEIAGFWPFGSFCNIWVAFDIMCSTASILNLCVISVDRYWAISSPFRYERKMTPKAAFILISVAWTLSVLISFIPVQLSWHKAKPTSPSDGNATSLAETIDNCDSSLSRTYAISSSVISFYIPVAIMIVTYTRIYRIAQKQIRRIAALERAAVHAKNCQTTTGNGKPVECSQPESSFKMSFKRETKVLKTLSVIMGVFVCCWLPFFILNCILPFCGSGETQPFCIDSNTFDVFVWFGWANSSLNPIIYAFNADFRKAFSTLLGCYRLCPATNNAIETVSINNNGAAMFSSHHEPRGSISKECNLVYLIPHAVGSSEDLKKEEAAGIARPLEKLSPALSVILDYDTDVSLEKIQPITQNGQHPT

| Ki | SMILES |
| --- | --- |
| 50 to 10000 nM | COc1ccc(/C=C/C(=N)Nc2cccc(C(F)(F)F)c2)cc1 [Example 1] |
| 50 to 10000 nM | N=C(/C=C/c1cc(C(F)(F)F)cc(C(F)(F)F)c1)Nc1ccc(Cl)cc1 [Example 2] |
| 50 to 10000 nM | N=C(/C=C/c1ccc(Cl)c([N+](=O)[O-])c1)Nc1ccc(Cl)cc1 [Example 3] |
| 50 to 10000 nM | N=C(/C=C/c1ccc(OC(F)(F)F)cc1)Nc1ccc(Cl)cc1 [Example 4] |
| 50 to 10000 nM | N=C(/C=C/c1ccccc1I)Nc1ccc(Cl)cc1 [Example 5] |
| 50 to 10000 nM | N=C(/C=C/c1ccc(CN2CCCCC2)cc1)Nc1ccc(Cl)cc1 [Example 6] |
| 10 to 50 nM | CC(C)(C)c1ccc(/C=C/C(=N)Nc2ccc(Cl)cc2)cc1 [Example 7] |
| 50 to 10000 nM | N=C(/C=C/c1ccc(Cc2cccnc2)cc1)Nc1ccc(O)cc1 [Example 8] |
| 50 to 10000 nM | COc1ccc(NC(=N)/C=C/c2ccc(Cc3cccnc3)cc2)cc1Cl [Example 9] |
| 10 to 50 nM | CC(C)c1ccc(/C=C/C(=N)Nc2ccc(Cl)cc2)cc1 [Example 10] |
| 50 to 10000 nM | N=C(/C=C/c1cccc2ccccc12)Nc1ccc(Cl)cc1 [Example 12] |
| 10 to 50 nM | N=C(/C=C/c1ccc(Cl)cc1Cl)Nc1ccc(Cl)cc1 [Example 13] |
| 50 to 10000 nM | N=C(/C=C/c1ccncc1)Nc1ccc(Cl)cc1 [Example 14] |
| 10 to 50 nM | N=C(/C=C/c1ccc(Cc2cccnc2)cc1)Nc1ccc2c(c1)CCC2 [Example 15] |
| 10 to 50 nM | N=C(/C=C/c1ccc(-c2ccccc2)cc1)Nc1ccc(Cl)cc1 [Example 16] |
| 50 to 10000 nM | COc1ccc(/C=C/C(=N)Nc2cccc(C)c2)cc1 [Example 17] |
| 50 to 10000 nM | COc1ccc(/C=C/C(=N)Nc2ccc(F)c(Cl)c2)cc1 [Example 18] |
| 50 to 10000 nM | N=C(/C=C/c1ccc(Cc2ccccn2)cc1)Nc1ccc(Cl)cc1 [Example 19] |
| < 10 nM | CC1CCCCN1c1ccc(/C=C/C(=N)Nc2ccc(Cl)cc2)c(Cl)c1 (stereo not drawn) [Example 20] |
| < 10 nM | N=C(/C=C/c1ccc(-c2ccc3[nH]ccc3c2)cc1)Nc1ccc(Cl)cc1 [Example 21, N-(4-chloro-phenyl)-3-[4-(1H -indol-5-yl)-phenyl]-acrylamidine] |
| 50 to 10000 nM | N=C(/C=C/c1ccc(Cc2cccnc2)cc1)Nc1ccc2c(c1)OCO2 [Example 22] |

| Ki | SMILES |
| --- | --- |
| 10 to 50 nM | COc1ccc(/C=C/C(=N)Nc2ccc(Br)cc2)cc1 [Example 23] |
| 10 to 50 nM | N=C(/C=C/c1ccc(Cc2cccnc2)cc1)Nc1ccc(Br)cc1 [Example 24] |
| 10 to 50 nM | N=C(/C=C/c1ccc(-c2ccccn2)cc1)Nc1ccc(Cl)cc1 [Example 25] |
| 50 to 10000 nM | COc1ccc2cc(C(=N)Nc3ccc(Cl)cc3)ccc2c1 [Example 26] |
| 50 to 10000 nM | COc1cccc(OC)c1/C=C/C(=N)Nc1ccc(Cl)cc1 [Example 27] |
| 50 to 10000 nM | Cc1ccc(/C=C/C(=N)Nc2ccc(Cl)cc2)cc1 [Example 28] |
| 10 to 50 nM | COc1ccc(/C=C/C(=N)Nc2ccc(Cl)cc2)c(Cl)c1OC [Example 29] |
| 10 to 50 nM | N#Cc1cccc(-c2ccc(/C=C/C(=N)Nc3ccc(Cl)cc3)cc2)c1 [Example 30] |
| 10 to 50 nM | Cc1ccc(NC(=N)/C=C/c2ccc(Cc3cccnc3)cc2)cc1 [Example 31] |
| < 10 nM | CC1CCCCN1c1ccc(/C=C/C(=N)Nc2ccc(Cl)cc2)cc1 (stereo not drawn) [Example 32] |
| < 10 nM | CN1CCN(c2ccc(/C=C/C(=N)Nc3ccc(Cl)cc3)c(Cl)c2)CC1 [Example 33] |
| < 5 nM | C[C@H]1CNCCN1c1ccc(/C=C/C(=N)Nc2ccc(Cl)cc2)c(Cl)c1 [Example 34] |
| 10 to 50 nM | N=C(/C=C/c1ccc(Cc2ccncc2)cc1)Nc1ccc(Cl)cc1 [Example 35] |
| 10 to 50 nM | N=C(/C=C/c1ccc(N2CCN(Cc3ccccc3)CC2)cc1)Nc1ccc(Cl)cc1 [Example 36] |
| 10 to 50 nM | CN(C)c1ccc(/C=C/C(=N)Nc2ccc(Cl)cc2)cc1 [Example 37] |
| 10 to 50 nM | CCN(CC)c1ccc(/C=C/C(=N)Nc2ccc(Cl)cc2)cc1 [Example 38] |
| < 5 nM | C[C@@H]1CNCCN1c1ccc(/C=C/C(=N)Nc2ccc(Cl)cc2)c(Cl)c1 [Example 39] |
| < 10 nM | CCN(CC)c1ccc(/C=C/C(=N)Nc2ccc(Cl)cc2)c(Cl)c1 [Example 40] |
| 10 to 50 nM | N=C(/C=C/c1ccc(-c2cccc([N+](=O)[O-])c2)cc1)Nc1ccc(Cl)cc1 [Example 41] |
| < 10 nM | N#Cc1ccc(-c2ccc(/C=C/C(=N)Nc3ccc(Cl)cc3)cc2)cc1 [Example 43] |
| < 10 nM | N=C(/C=C/c1ccc(-c2ccc(C=O)cc2)cc1)Nc1ccc(Cl)cc1 [Example 44] |

| Ki | SMILES |
| --- | --- |
| 10 to 50 nM | CC(CN1CCN(c2ccc(/C=C/C(=N)Nc3ccc(Cl)cc3)c(Cl)c2)CC1)c1ccccc1 (stereo not drawn) [Example 45] |
| 10 to 50 nM | COC(=O)C1CC1CN1CCN(c2ccc(/C=C/C(=N)Nc3ccc(Cl)cc3)c(Cl)c2)CC1 (stereo not drawn) [Example 46] |
| 10 to 50 nM | N=C(/C=C/c1ccc(N2CCN(Cc3cccs3)CC2)cc1Cl)Nc1ccc(Cl)cc1 [Example 47] |
| 10 to 50 nM | N=C(/C=C/c1ccc(Cc2cccnc2)cc1)Nc1ccc(Cl)cc1 [Example 48] |
| 10 to 50 nM | CC(=O)c1ccc(-c2ccc(/C=C/C(=N)Nc3ccc(Cl)cc3)cc2)cc1 [Example 49] |
| 10 to 50 nM | CN1c2ccccc2Sc2cc(/C=C/C(=N)Nc3ccc(Cl)cc3)ccc21 [Example 50] |
| 10 to 50 nM | COc1cc(N(C)C)ccc1/C=C/C(=N)Nc1ccc(Cl)cc1 [Example 51] |
| 10 to 50 nM | CN1CCN(Cc2ccc(-c3ccc(/C=C/C(=N)Nc4ccc(Cl)cc4)cc3)cc2)CC1 [Example 52] |
| 10 to 50 nM | N=C(/C=C/c1ccc(N2CCN(Cc3cccc(OC(F)(F)F)c3)CC2)cc1Cl)Nc1ccc(Cl)cc1 [Example 53] |
| 10 to 50 nM | COc1ccc(/C=C/C(=N)Nc2ccc(Cl)cc2)c(F)c1 [Example 54] |
| 10 to 50 nM | COc1ccc(/C=C/C(=N)Nc2cc(F)cc(F)c2)cc1 [Example 55] |
| 10 to 50 nM | CCC1CCC(N2CCN(c3ccc(/C=C/C(=N)Nc4ccc(Cl)cc4)c(Cl)c3)CC2)CC1 (stereo not drawn) [Example 56] |
| 10 to 50 nM | N=C(/C=C/c1ccc(Cc2c[nH]cn2)cc1)Nc1ccc(Cl)cc1 [Example 57] |
| 10 to 50 nM | N=C(/C=C/c1ccc(-c2cccc(F)c2)cc1)Nc1ccc(Cl)cc1 [Example 58] |
| 10 to 50 nM | C=Cc1ccc(-c2ccc(/C=C/C(=N)Nc3ccc(Cl)cc3)cc2)cc1 [Example 59] |
| 10 to 50 nM | CCC1CCCCN1c1ccc(/C=C/C(=N)Nc2ccc(Cl)cc2)cc1 (stereo not drawn) [Example 60] |
| 10 to 50 nM | N=C(Nc1ccc(Cl)cc1)c1ccc2cc(N3CCN(Cc4ccccc4)CC3)ccc2c1 [Example 61] |
| 10 to 50 nM | CCOc1ccc(CN2CCN(c3ccc(/C=C/C(=N)Nc4ccc(Cl)cc4)c(Cl)c3)CC2)cc1 [Example 62] |
| 10 to 50 nM | N=C(/C=C/c1ccc(-c2ccsc2)cc1)Nc1ccc(Cl)cc1 [Example 64] |
| 10 to 50 nM | COc1ccc(/C=C/C(=N)Nc2ccc(Cl)cc2)cc1Cl [Example 65] |
| 10 to 50 nM | N=C(Nc1ccc(Cl)cc1)c1ccc2cccc(O)c2n1 [Example 66] |

| Ki | SMILES |
| --- | --- |
| 10 to 50 nM | N=C(/C=C/c1ccc(Cl)s1)Nc1ccc(Cl)cc1 [Example 67] |
| 10 to 50 nM | N=C(/C=C/c1ccc(-c2ccc(CN3CCNCC3)cc2)cc1)Nc1ccc(Cl)cc1 [Example 68] |
| 10 to 50 nM | COc1ccc(/C=C/C(=N)Nc2ccc(Cl)cc2)cc1OC [Example 69] |
| 10 to 50 nM | COc1ccc(/C=C/C(=N)Nc2ccc(Cl)cc2)cc1 [Example 70] |
| 10 to 50 nM | N=C(Nc1ccc(Cl)cc1)c1ccc2cc(N3CCNCC3)ccc2c1 [Example 71] |
| 10 to 50 nM | N=C(/C=C/c1ccc2c(c1)OCO2)Nc1ccc(Cl)cc1 [Example 72] |
| 10 to 50 nM | N=C(/C=C/c1ccccc1Cl)Nc1ccc(Cl)cc1 [Example 73] |
| 10 to 50 nM | N=C(/C=C/c1ccc(N2CCN(C3CCCC(C(F)(F)F)C3)CC2)cc1Cl)Nc1ccc(Cl)cc1 (stereo not drawn) [Example 74] |
| 50 to 10000 nM | CC(C)(C)OC(=O)N1CCN(Cc2ccc(-c3ccc(/C=C/C(=N)Nc4ccc(Cl)cc4)cc3)cc2)CC1 [Example 75] |
| 50 to 10000 nM | N=C(/C=C/c1ccccc1Br)Nc1ccc(Cl)cc1 [Example 76] |
| 50 to 10000 nM | CC(C)N1CCN(c2ccc(/C=C/C(=N)Nc3ccc(Cl)cc3)c(Cl)c2)CC1 [Example 77] |
| 50 to 10000 nM | N=C(/C=C/c1ccc2ccccc2c1)Nc1ccc(Cl)cc1 [Example 78] |
| 50 to 10000 nM | N=C(Nc1ccc(Cl)cc1)c1ccc2nc(N3CCNCC3)ccc2c1 [Example 79] |
| 50 to 10000 nM | N=C(/C=C/c1ccc(Cl)cc1)Nc1ccc(Cl)cc1 [Example 80] |
| 50 to 10000 nM | COc1ccc(/C=C\C(=N)Nc2ccc(Cl)cc2)cc1 [Example 81] |
| 50 to 10000 nM | COc1ccc(/C=C/C(=N)Nc2cccc([N+](=O)[O-])c2)cc1 [Example 82] |
| 50 to 10000 nM | CCC(C)CN1CCN(c2ccc(/C=C/C(=N)Nc3ccc(Cl)cc3)c(Cl)c2)CC1 (stereo not drawn) [Example 83] |
| 50 to 10000 nM | N=C(/C=C/c1ccc(N2CCCCC2)cc1)Nc1ccc(Cl)cc1 [Example 84] |
| 50 to 10000 nM | COc1ccc(/C=C\C(=N)Nc2ccc(Cl)cc2)c(F)c1 [Example 85] |
| 50 to 10000 nM | N=C(/C=C/c1ccc(N2CCOCC2)cc1)Nc1ccc(Cl)cc1 [Example 86] |
| 50 to 10000 nM | N=C(/C=C/c1ccc(-c2ccc(CN3CCN(Cc4ccccc4)CC3)cc2)cc1)Nc1ccc(Cl)cc1 [Example 87] |
